The results in this text go back to US20110039770A1, “INHIBITORS OF PROTEIN KINASE C ISOFORMS AND USES THEREOF” (PHARMAGAP INC., priority 2005, published 2011).

Where a SMILES comes first, the peptide text is derived from it. The star is where a group is joined. PNA(A) = NCCN(CC(=O)*)C(=O)Cn1cnc2c(N)ncnc21

This data set deals with H661 human non-small cell lung cancer cells. Put plainly: Inhibition of NSCLC cell proliferation (protocol of Example 14). The class given is cell-based. The note with it: for % Cell Survival (±S.D.): H661. As to the method:
The ability of compounds PKI 1, PKI 2 and PKI 3 to inhibit cancer cell proliferation was tested in vitro using the human neuroblastoma cell line IMR-32. Monolayer cell cultures were trypsinized and the test compound was added at the doses indicated in Table 24 and internalized by pinocytic endocytosis using Influx TM pinocytic cell-loading reagent, a kit from Molecular Probes (Eugene, Oreg.) following the manufacturer's recommendations. The indicated doses refer to the concentration in the loading medium, which was used on 1×10^6 cells in a 10 μl volume, i.e. contained 10 μg to 100 ug of test compound that provides […] per cell. It is worth noting, however, that only a small proportion of the compound is internalized using this technique, so the actual dose may be lower. The cells were treated on day 0 of the experiment. The cells loaded with test compound were cultured in 96 well plates (5,000 cells in 100 μl per well), and the proliferation was monitored over 3 consecutive days. The increase in cell population was quantified using a Hoechst reagent-based assay (modified from Rao and Otto, 1992, Analytical Biochem. 207:186-192) that measures the total DNA of the population. Fluorescence was measured using a Millipore CytoFluor 2350 plate reader (excitation at 360 nm and emission at 460 nm). The measurements were obtained as relative fluorescence intensity, a value that is directly correlated to the total number of cells. Data are expressed as a percentage of matching controls that were supplemented with culture medium alone.
The ability of the compound TIM 10 to inhibit cancer cell proliferation was tested in vitro using the human non-small cell lung cancer cell line H661 and following the general protocol described in Example 14. The effect of compound TIM 10 on CCD-16Lu cells (normal immortalized human lung fibroblasts) was also assessed by the same protocol. The results after 24, 48 and 72 hours of treatment are shown in Table 31 (H661 cell line) and FIG. 24 (A: CCD-16LU cell line, and B: H661 cell line). The change in dose effect at 48 and 72 hrs in normal cells (see FIG. 24A) for lower doses of compound TIM 10 was interpreted as being due to the probable intracellular degradation of compound TIM 10 which would reduce the level of compound TIM 10 to doses that no longer affect growth. In H661 cells, however, at doses of 1 mM compound TIM 10 was not degraded and its sub localization was not altered as assessed by western blot and immunocytochemistry imaging.

As to `CC[C@H](C)[C@H](NC(=O)[C@H](CO)NC(=O)[C@@H](NC(=O)CNC(=O)[C@@H](NC(=O)[C@H](CC(C)C)NC(=O)[C@H](CC(N)=O)NC(=O)[C@H](CCC(N)=O)NC(=O)[C@H](C)NC(=O)[C@H](CC(=O)O)NC(=O)[C@H](CCCCN)NC(=O)CNC(=O)CNC(=O)CNC(=O)CNC(=O)CNC(=O)CNC(=O)CNC(=O)[C@H](CC(C)C)NC(=O)[C@H](CCCNC(=N)N)NC(=O)[C@H](Cc1ccccc1)NC(=O)[C@H](CCCCNC(=O)CN(CCN)C(=O)Cn1cnc2c(N)ncnc21)NC(=O)[C@H](CCCNC(=N)N)NC(=O)[C@H](CCCNC(=N)N)NC(=O)[C@H](Cc1ccccc1)NC(C)=O)[C@@H](C)CC)[C@@H](C)CC)C(N)=O` [TIM 10] (Ac-FRRK(PNA(A))FRLGGGGGGGKDAQNLIGISI-NH2), the “% Cell Survival (±S.D.)” value reads like this: (100 μM, 24 Hours) 97 (6) %; (100 μM, 48 Hours) 85 (3) %; (100 μM, 72 Hours) 51 (5) %; (500 μM, 24 Hours) 91 (5) %; (500 μM, 48 Hours) 82 (2) %; (500 μM, 72 Hours) 49 (7) %. Moreover, the “% Cell Survival (±S.D.)” value (1 mM, 24 Hours) is recorded as 85 (9) %; the “% Cell Survival (±S.D.)” value (1 mM, 48 Hours) is given as 82 (2) %; the “% Cell Survival (±S.D.)” value (1 mM, 72 Hours) is recorded as 45 (6) %; the “% Cell Survival (±S.D.)” value (5 mM, 24 Hours) is reported as 83 (7) %; the “% Cell Survival (±S.D.)” value (5 mM, 48 Hours) is 79 (2) %; the “% Cell Survival (±S.D.)” value (5 mM, 72 Hours) is recorded as 43 (5) %. Moreover, where the note is “H661 cells, 1 mM, western blot and immunocytochemistry”, the intracellular degradation result is given as “not degraded”.
